Reference: patent US20080004236A1, “High Dose, Short Interval Use of Sulfated Polysaccharides for Treatment of Infections” (priority 2004, published 2008)

Experiments:
[1] = maximally tolerated dose, continuous infusion up to 14 days, subjects with symptomatic HIV infection; cited from earlier work
[2] = Maximum tolerated dose in rats
[3] = Maximum tolerated dose in monkeys
[4] = Maximum tolerated dose in dogs

## dextran sulfate [listing 1 of 3 here]
[1]
  toxicity of continuous intravenous infusion: toxic

## dextran sulfate [listing 2 of 3 here]
[2]
  maximum tolerated dose (MTD): about 800 mg/kg/day

## dextran sulfate [listing 3 of 3 here]
[3]
  maximum tolerated dose (MTD): about 300 mg/kg/day
[4]
  maximum tolerated dose (MTD): about 500 mg/kg/day
